What was measured:
[1] = molecular target: T1, Ephrin type-A receptor 6 (Homo sapiens) (UniProt Q9UF33); assay: Inhibition of EPHA6 (unknown origin) assessed as residual activity at 1000 nM by KINOMEscan analysis relative to control
T1 sequence (whole entry): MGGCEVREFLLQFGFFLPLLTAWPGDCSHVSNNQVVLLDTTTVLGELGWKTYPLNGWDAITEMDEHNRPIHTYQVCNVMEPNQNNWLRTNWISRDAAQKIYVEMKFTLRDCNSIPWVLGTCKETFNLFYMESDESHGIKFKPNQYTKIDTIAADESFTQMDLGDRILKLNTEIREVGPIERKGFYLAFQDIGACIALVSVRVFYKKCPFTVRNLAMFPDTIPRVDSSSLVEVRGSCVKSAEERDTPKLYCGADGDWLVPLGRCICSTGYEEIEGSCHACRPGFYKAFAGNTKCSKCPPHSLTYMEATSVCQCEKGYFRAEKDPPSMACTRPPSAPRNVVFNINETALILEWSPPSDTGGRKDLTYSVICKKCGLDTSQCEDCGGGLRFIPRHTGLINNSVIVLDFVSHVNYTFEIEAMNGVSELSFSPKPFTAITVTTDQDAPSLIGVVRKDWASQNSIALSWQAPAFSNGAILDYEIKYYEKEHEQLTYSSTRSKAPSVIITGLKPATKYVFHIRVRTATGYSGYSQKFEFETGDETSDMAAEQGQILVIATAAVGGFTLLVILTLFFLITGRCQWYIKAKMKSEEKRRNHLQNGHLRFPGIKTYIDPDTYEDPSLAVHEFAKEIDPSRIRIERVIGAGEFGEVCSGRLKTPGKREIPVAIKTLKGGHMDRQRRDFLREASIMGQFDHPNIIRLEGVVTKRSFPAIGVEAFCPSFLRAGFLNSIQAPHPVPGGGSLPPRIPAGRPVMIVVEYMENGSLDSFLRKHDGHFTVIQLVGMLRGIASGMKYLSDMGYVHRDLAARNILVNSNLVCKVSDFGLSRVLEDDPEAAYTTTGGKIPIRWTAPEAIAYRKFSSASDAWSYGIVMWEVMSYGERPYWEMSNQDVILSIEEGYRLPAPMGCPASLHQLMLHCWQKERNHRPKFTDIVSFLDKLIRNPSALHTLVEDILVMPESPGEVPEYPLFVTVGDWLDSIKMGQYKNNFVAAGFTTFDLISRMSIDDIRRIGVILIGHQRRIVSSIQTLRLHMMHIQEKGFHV

[2] = molecular target: T2, Serine/threonine-protein kinase STK11 (Homo sapiens) (UniProt Q15831); assay: Inhibition of LKB1 (unknown origin) assessed as residual activity at 1000 nM by KINOMEscan analysis relative to control
T2 sequence (whole entry): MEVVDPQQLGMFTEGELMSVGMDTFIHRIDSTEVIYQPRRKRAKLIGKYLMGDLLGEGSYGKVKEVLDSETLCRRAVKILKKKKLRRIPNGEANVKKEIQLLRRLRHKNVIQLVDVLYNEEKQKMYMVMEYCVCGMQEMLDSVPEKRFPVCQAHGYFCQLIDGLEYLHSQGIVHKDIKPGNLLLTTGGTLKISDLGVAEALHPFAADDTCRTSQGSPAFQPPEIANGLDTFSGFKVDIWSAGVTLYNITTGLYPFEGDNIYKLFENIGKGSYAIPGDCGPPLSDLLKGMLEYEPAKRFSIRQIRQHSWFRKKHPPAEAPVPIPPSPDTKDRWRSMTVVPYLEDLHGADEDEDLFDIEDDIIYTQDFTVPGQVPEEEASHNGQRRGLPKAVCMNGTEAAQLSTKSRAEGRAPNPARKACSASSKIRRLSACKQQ

[3] = molecular target: T3, Cyclin-G-associated kinase (Homo sapiens) (UniProt O14976); assay: Inhibition of GAK (unknown origin) assessed as residual activity at 1000 nM by KINOMEscan analysis relative to control
T3 sequence (whole entry): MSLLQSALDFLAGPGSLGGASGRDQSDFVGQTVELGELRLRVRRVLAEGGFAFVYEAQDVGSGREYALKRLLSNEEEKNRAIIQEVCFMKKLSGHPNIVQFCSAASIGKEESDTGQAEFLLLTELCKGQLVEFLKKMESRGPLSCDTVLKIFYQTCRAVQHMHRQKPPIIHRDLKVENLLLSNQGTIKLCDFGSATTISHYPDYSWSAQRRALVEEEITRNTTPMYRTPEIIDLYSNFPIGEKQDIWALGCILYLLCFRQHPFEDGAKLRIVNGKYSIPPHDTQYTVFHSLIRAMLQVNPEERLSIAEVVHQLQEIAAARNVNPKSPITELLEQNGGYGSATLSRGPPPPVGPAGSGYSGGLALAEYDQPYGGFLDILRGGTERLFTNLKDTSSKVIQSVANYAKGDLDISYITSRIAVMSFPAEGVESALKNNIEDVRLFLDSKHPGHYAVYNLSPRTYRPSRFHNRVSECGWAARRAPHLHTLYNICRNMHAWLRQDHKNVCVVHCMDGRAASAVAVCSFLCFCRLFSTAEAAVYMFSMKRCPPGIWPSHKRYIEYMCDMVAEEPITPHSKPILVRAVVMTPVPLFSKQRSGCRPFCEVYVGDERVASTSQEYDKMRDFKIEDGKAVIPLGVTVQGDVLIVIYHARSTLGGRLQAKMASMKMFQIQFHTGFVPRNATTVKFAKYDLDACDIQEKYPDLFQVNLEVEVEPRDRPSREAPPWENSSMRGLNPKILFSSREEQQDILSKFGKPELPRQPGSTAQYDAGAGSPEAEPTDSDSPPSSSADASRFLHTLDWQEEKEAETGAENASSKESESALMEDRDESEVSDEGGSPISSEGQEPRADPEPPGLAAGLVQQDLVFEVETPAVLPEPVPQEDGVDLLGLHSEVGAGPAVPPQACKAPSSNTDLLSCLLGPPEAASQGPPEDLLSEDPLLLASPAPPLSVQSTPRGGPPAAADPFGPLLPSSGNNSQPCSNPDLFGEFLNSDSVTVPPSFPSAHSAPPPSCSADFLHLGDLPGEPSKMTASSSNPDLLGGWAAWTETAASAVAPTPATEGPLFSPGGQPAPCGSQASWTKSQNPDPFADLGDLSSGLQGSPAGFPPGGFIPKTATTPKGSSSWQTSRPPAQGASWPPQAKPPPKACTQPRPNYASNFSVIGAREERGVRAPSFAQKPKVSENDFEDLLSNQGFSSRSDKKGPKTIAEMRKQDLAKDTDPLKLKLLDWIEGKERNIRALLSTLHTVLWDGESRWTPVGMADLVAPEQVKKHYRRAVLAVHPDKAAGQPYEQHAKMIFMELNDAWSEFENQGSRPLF

Structure (SMILES)	Activity [1] [%]	Activity [2] [%]	Activity [3] [%]
COc1cc2nc(C)nc(N[C@H](C)c3cccc(-c4cn[nH]c4)c3)c2cc1OC	96	100	96
COc1cc2ncnc(N[C@H](C)c3cccc4ccccc34)c2cc1OC	88	100	59
